Patent US20170333391A1, “METHOD FOR DELAYING THE ONSET OF PULMONARY FIBROSIS OR TREATING PULMONARY FIBROSIS” (EVERFRONT BIOTECH INC., priority 2016, published 2017)

What was measured:
BMP-7 protein [1] = experiment: BMP-7 protein expression in TGF-β1-induced NHLF, western blotting (Example 4); format: cell-based, human; settings: uninduced control = 1, TGF-β1-only group A = 0.19
Experimental: (§1) Normal Human lung fibroblasts (NHLF) were seeded into 6 cm culture dishes at a density of 2×10^5 cells/dish, comprising a control group and five experimental groups (6 dishes in total). The cells were cultured until the next day, and then the mediums were removed. Each group was respectively treated under the following conditions to conduct follow-up experiments: • (1) Control group: cells were cultured in a FGM-2 medium containing 1% serum for 36 hours; • (2) Group A: cells were cultured in a FGM-2 medium containing 1% serum and TGF-β1 (5 ng/ml) for 36 hours; • (3) Group B: cells were firstly cultured in a FGM-2 medium containing 1% serum and TGF-β1 (5 ng/ml) for 12 hours, and then compound (1) was added into the medium to provide a final concentration of 15 μg/ml; thereafter, the cells were cultured for another 24 hours; • (4) Group C: cells were firstly cultured in a FGM-2 medium containing 1% serum and TGF-β1 (5 ng/ml) for 12 hours, and then compound (1) was added into the medium to provide a final concentration of 30 μg/ml; thereafter, the cells were cultured for another 24 hours; • (5) Group D: cells were firstly cultured in a FGM-2 medium containing 1% serum and TGF-β1 (5 ng/ml) for 12 hours, and then compound (2) was added into the medium to provide a final concentration of 100 μg/ml; thereafter, the cells were cultured for another 24 hours; and • (6) Group E: cells were firstly cultured in a FGM-2 medium containing 1% serum and TGF-β1 (5 ng/ml) for 12 hours, and then compound (2) was added into the medium to provide a final concentration of 200 μg/ml; thereafter, the cells were cultured for another 24 hours.
(§2) Thereafter, the proteins in the cells of each group were extracted, and the expressions of BMP-7 protein, TGF-β protein and p-smad2/3 protein in the NHLF cells of each group were measured with western blotting. The results of the control group served as the basis for calculating the relative expression levels of the other groups.

p-smad2/3 protein = p-smad2/3 protein expression in TGF-β1-induced NHLF, western blotting (Example 4); format: cell-based, human; settings: uninduced control = 1, TGF-β1-only group A = 1.42
Experimental: as §1, §2

TGF-β protein [2] = experiment: TGF-β protein expression in TGF-β1-induced NHLF, western blotting (Example 4); format: cell-based, human; settings: uninduced control = 1, TGF-β1-only group A = 1.75
Experimental: as §1, §2

BMP-7 protein [3] = experiment: BMP-7 protein expression in TGF-β1-induced NHLF, western blotting (2-2); format: cell-based, human; settings: TGF-β1-only control group = 1
Experimental: (§3) Normal Human lung fibroblasts (NHLF) were seeded into 6 cm culture dishes at a density of 2×10^5 cells/dish, comprising a control group and six experimental groups (7 dishes in total). The cells were cultured until the next day, and then the mediums were removed. Each group was respectively treated under the following conditions to conduct follow-up experiments: • (1) Positive control group: cells were cultured in a FGM-2 medium containing 1% serum and TGF-β1 (5 ng/ml) for 36 hours; • (2) Group I: cells were firstly cultured in a FGM-2 medium containing 1% serum and TGF-β1 (5 ng/ml) for 12 hours, and then compound (1) was added into the medium to provide a final concentration of 15 μg/ml; thereafter, the cells were cultured for another 24 hours; • (3) Group II: cells were firstly cultured in a FGM-2 medium containing 1% serum and TGF-β1 (5 ng/ml) for 12 hours, and then compound (1) was added into the medium to provide a final concentration of 25 μg/ml; thereafter, the cells were cultured for another 24 hours; • (4) Group III: cells were firstly cultured in a FGM-2 medium containing 1% serum and TGF-β1 (5 ng/ml) for 12 hours, and then compound (1) was added into the medium to provide a final concentration of 35 μg/ml; thereafter, the cells were cultured for another 24 hours; • (5) Group IV: cells were firstly cultured in a FGM-2 medium containing 1% serum and TGF-β1 (5 ng/ml) for 12 hours, and then the Pirfenidone was added into the medium to provide a final concentration of 100 μg/ml; thereafter, the cells were cultured for another 24 hours; • (6) Group V: cells were firstly cultured in a FGM-2 medium containing 1% serum and TGF-β1 (5 ng/ml) for 12 hours, and then the Pirfenidone was added into the medium to provide a final concentration of 250 μg/ml; thereafter, the cells were cultured for another 24 hours; and • (7) Group VI: cells were firstly cultured in a FGM-2 medium containing 1% serum and TGF-β1 (5 ng/ml) for 12 hours, and then the Pirfenidone was added into the medium to provide a final concentration of 500 μg/ml; thereafter, the cells were cultured for another 24 hours.
(§4) Thereafter, the proteins in the cells of each group were extracted, and the expressions of type I collagen, BMP-7 protein and TGF-β protein in the NHLF cells of each group were measured with western blotting. The results of the control group served as the basis for calculating the relative expression levels of the other groups.

TGF-β protein [4] = experiment: TGF-β protein expression in TGF-β1-induced NHLF, western blotting (2-2); format: cell-based, human; settings: TGF-β1-only control group = 1
Experimental: as §3, §4

type I collagen = experiment: Type I collagen expression in TGF-β1-induced NHLF, western blotting (2-2); format: cell-based, human; settings: TGF-β1-only control group = 1
Experimental: as §3, §4

[5] = tested on: Rat type II alveolar cell, L2 cell line; experiment: Cell survival test (MTT analysis) under H2O2 oxidative stress; format: cell-based; settings: 24 hours, control group = 100%
Experimental: The rat type II alveolar cell, L2 cell line (ATCC® CCL149™) were seeded into a 96-well plate at a density of 5×10^3 cells/well, 48 wells in total (separated into a control group and five experimental groups, 8 wells for each group). The cells were cultured until the next day, and then the mediums were removed. Each group was respectively treated under the following conditions to conduct follow-up experiments:
(1) Control group: cells were cultured in a F-12K medium (Kaighn's Modification of Ham's F-12 Medium, ATCC® 30-2004™) for 24 hours;
(2) Group 1: cells were cultured in a F-12K medium containing H2O2 (0.1 mM) for 24 hours;
(3) Group 2: cells were cultured in a F-12K medium containing H2O2 (0.1 mM) and compound (1) (5 μg/ml) for 24 hours;
(4) Group 3: cells were cultured in a F-12K medium containing H2O2 (0.1 mM) and N-acetylcysteine (NAC) (2 mM) for 24 hours;
(5) Group 4: cells were cultured in a F-12K medium containing H2O2 (0.2 mM) and compound (1) (5 μg/ml) for 24 hours; and
(6) Group 5: cells were cultured in a F-12K medium containing H2O2 (0.2 mM) and NAC (2 mM) for 24 hours.
The mediums were removed after culturing was complete, and then each group was respectively treated under the following conditions: F-12K mediums containing 10% of 3-(4,5-Dimethylthiazol-2-yl)-2,5-diphenyltetrazolium bromide (MTT) were added into each well, and cultured for 1 hour. Thereafter, the mediums were removed, and a suitable amount of dimethyl sulfoxide (DMSO) was added into the wells. An Enzyme-Linked ImmunoSorbent Assay reader (ELISA reader) was then used for detecting the absorbance of each group at a wavelength of 595 nm (OD595nm). The average value of each group was respectively calculated (n=8), and then the result of the control group served as the basis for calculating the relative survival rates of the other groups.

[6] = Group D: TGF-β1 5 ng/ml 12 h, then compound (2) 100 μg/ml 24 h
[7] = Group E: TGF-β1 5 ng/ml 12 h, then compound (2) 200 μg/ml 24 h
[8] = Group IV: TGF-β1 5 ng/ml 12 h, then Pirfenidone 100 μg/ml 24 h
[9] = Group V: TGF-β1 5 ng/ml 12 h, then Pirfenidone 250 μg/ml 24 h
[10] = Group VI: TGF-β1 5 ng/ml 12 h, then Pirfenidone 500 μg/ml 24 h

## CCCCC(=O)c1ccccc1C(=O)O [compound (2)]
BMP-7 protein [1]; [6]
  Relative expression level (fold) BMP-7 protein: 0.11 fold
BMP-7 protein [1]; [7]
  Relative expression level (fold) BMP-7 protein: 0.08 fold
p-smad2/3 protein; [6]
  Relative expression level (fold) p-smad2/3 protein: 1.12 fold
p-smad2/3 protein; [7]
  Relative expression level (fold) p-smad2/3 protein: 1.05 fold
TGF-β protein [2]; [6]
  Relative expression level (fold) TGF-β protein: 0.46 fold
TGF-β protein [2]; [7]
  Relative expression level (fold) TGF-β protein: 0.29 fold

## Cc1ccc(=O)n(-c2ccccc2)c1 [Pirfenidone, reference compound]
BMP-7 protein [3]; [8]
  Relative expression level (fold) BMP-7 protein: 1.52 fold
BMP-7 protein [3]; [9]
  Relative expression level (fold) BMP-7 protein: 1.43 fold
BMP-7 protein [3]; [10]
  Relative expression level (fold) BMP-7 protein: 1.34 fold
TGF-β protein [4]; [8]
  Relative expression level (fold) TGF-β protein: 0.67 fold
TGF-β protein [4]; [9]
  Relative expression level (fold) TGF-β protein: 0.64 fold
TGF-β protein [4]; [10]
  Relative expression level (fold) TGF-β protein: 0.67 fold
Type I collagen; [8]
  Relative expression level (fold) Type I collagen: 0.95 fold
Type I collagen; [9]
  Relative expression level (fold) Type I collagen: 0.57 fold
Type I collagen; [10]
  Relative expression level (fold) Type I collagen: 0.50 fold

## CC(=O)N[C@@H](CS)C(=O)O [NAC, N-acetylcysteine, reference compound]
[5]; Group 3: H2O2 0.1 mM + NAC 2 mM, H2O2 0.1 mM alone = 38.9%
  Relative survival rate: 101.9%
[5]; Group 5: H2O2 0.2 mM + NAC 2 mM
  Relative survival rate: 83.1%
